Laboratory results taken from patent US6602861B1, “Acylated phospholipid drugs” (Research Corporation Technologies, Inc., priority 1992, dated 2003).
Entries after “also recorded” stand apart in the source; their conditions may differ. Like-named read-outs stand apart in the source and are kept apart here.

How the values were obtained:
[1] = delivered to cells as a free fatty acid; cited from earlier work
HIV-1 (3B) = assay: HIV-1 p24 antigen capture assay in infected monocyte-derived macrophages; type: cell-based; conditions: for inhibition of HIV p24 antigen production in MDM: 50 μM; for dose response behaviour in MDM: 1-100 μM
[2] = Drug cytotoxicity MTT assay (TC50), uninfected MT4 cells; type: cell-based; conditions: human, uninfected MT4 cells; MT4 cells, absence of HIV
Description: (§1) Three assays for anti-HIV activity were used and the IC50 was calculated from these assays; (i) syncytial cell assays, (ii) reverse transcriptase assays, and (iii) direct […]. In addition, direct drug cytotoxicity was tested ‘as a control’ in each assay which merely means that the drug was dosed to the cells without virus present. This control assured that only the antiviral effect of the compound is measured. However, this drug cytotoxicity was not used to calculate the TC50 because the TC50 required doses of drug that were higher than the effective concentrations. Thus the TC50 is the dose of drug that kills 50% of the cells without virus present and was measured in MTT assays using the same cells type to evaluate antiviral activity. The therapeutic index was calculated from TC50/IC50. The ability of anti-HIV phospholipids to inhibit direct cytopathic effect caused by HIV infection was also measured.
(§2) MT4 cells were plated in 96-well microtiter plates at 8×10^4 cells/well in a volume of 90 μl. [Note: To compare TC50 to IC50, the same cell type used in antiviral assays was tested in the MTT assay; for these experiments, MT4 cells were used to evaluate the syncytial cell assays and PBMC's were used to compare the PBMC/RT assay]. To this was added one minimum cytotoxic dose of HIV in a volume of 10 μl. The test drug was added in 100 μl aliquots at several concentrations. A control plate using uninfected MT4 cells was set up simultaneously to assess cytotoxicity due to the drug alone. The plates were then incubated for five days at 37° C. Then the media was aspirated from the wells and replaced with 100 μl MTT solution (3-(4,5-dimethylthiazol-2-yl)-2,5-di-phenyltetrazolium bromide, 1 mg/ml in PBS) and incubated for 4 hours at 37° C. The plates were then centrifuged to pellet the cells, and the supernatants were removed (centrifugation can be omitted if the supernatants are removed carefully). […] Plates were read on an ELISA reader at Abs 570 nm. […]

[3] = tested on: monocyte-derived macrophages (MDM); assay: Toxicity seen in the macrophage p24 experiment; conditions: 100 μM
HIV [4] = assay: microbe, parasite or virus in culture
Description: (§3) Briefly, the assay was performed as follows. On Day 0, MT4 cells were infected with HIV. On Day 3, mix 10^3-10^4 infected cells (resuspend cells at 10^4-10^5 cells/ml so that the desired number of cells is in a volume of 100 μl) with 10^5 SupT1 cells (suspended at 10^6/ml, so that there are 10^5 cells per 100 μl) in a 96 well plate. Infected cells are titered to find the optimum number of syncytial cells to count. Cells are counted either manually or by flow cytometry. […] The time intervals for other cell lines may vary. To assay drugs that block syncytia formation, 50 μl SupT1, 50 μl infected (MT4) cells (total cell number is the same), and 100 μl of drug are present.

CEM cells [5] = assay: Direct cytotoxicity of compounds to CEM cells without virus; conditions: for direct cytotoxicity to CEM cells: no virus
[6] = tested on: HIV (S5G7, subclone of HTLVIIIB); assay: microbe, parasite or virus in culture; type: cell-based; conditions: 7 days after infection, read-out: IC50 50% Reduction in Reverse Transcriptase Activity PBMC
[7] = Drug cytotoxicity MTT assay (TC50), PBMC; type: cell-based; conditions: human, uninfected; PBMC cells, absence of HIV
Description: as §1
(§4) MT4 cells were plated in 96-well microtiter plates at 8×10^4 cells/well in a volume of 90 μl. [Note: To compare TC50 to IC50, the same cell type used in antiviral assays was tested in the MTT assay; for these experiments, MT4 cells were used to evaluate the syncytial cell assays and PBMC's were used to compare the PBMC/RT assay]. To this was added one minimum cytotoxic dose of HIV in a volume of 10 μl. […] Plates were read on an ELISA reader at Abs 570 nm. […]

HIV infected MT4 cells [8] = conditions: literature report; cited from earlier work
HIV infected MT4 cells [9] = assay: Synergism with AZT in syncytial cell assays (FIG. 6); type: cell-based; conditions: for increase in activity (shift in dose response curve) when AZT was added: plus 0.5 nM AZT
Description: as §3

HIV-1 = conditions: CEM cells
From the text: The S5G7 strain of HIV was used. S5G7 is a subclone of HTLVIIIB grown in H9 cells, and highly virulent regarding T cell infectivity, but less so for monocytes; this strain was obtained from Abbott Laboratories.
This assay measures the ability of a drug to inhibit the HIV virus from killing cells. CEM cells were used for this assay.
The T-cell HIV inhibition assay method of acutely infected cells is an automated tetrazolium based calorimetric assay adapted from Novak, et al., Aids Res. and Human Retroviruses, 6, 973 (1990). Assays were performed in 96-well tissue culture plates. CEM cells were grown in RPMI-1640 medium (Gibco) supplemented with 10% fetal calf serum and were then treated with polybrene (2 μg/ml). A 80 μl volume of medium containing 1×10^4 cells was dispensed into each well of the tissue culture plate. To each well was added a 100 μl volume of test compound dissolved in tissue culture medium (or medium without test compound as a control) to achieve the desired final concentration and the cells were incubated at 37° C. for 1 hour. A frozen culture of HIV-1 was diluted in culture medium to a concentration of 5×10^6 TCID50 per ml (TCID50=the dose of virus that infects 50% of cells in tissue culture), and a 20 μl volume of the virus sample (containing 1000 TCID50 of virus) was added to wells containing test compound and to wells containing only medium (infected control cells). […] Several wells received culture medium without virus (uninfected control cells). Azidothymidine (AZT) was tested as a positive drug control.
Following the addition of virus, cells were incubated at 37° C. in a humidified, 5% CO2 atmosphere for 7 days. Additional aliquots of test compounds were added on days 2 and 5. On day 7 post-infection, the cells in each well were resuspended and a 100 μl sample of each cell suspension was removed for assay. […] The absorbance of each sample was determined at 590 nm using a Molecular Devices microplate reader. The % reduction of the virus induced cytopathic effect (CPE) by the test compounds was calculated from the equation.

CEM cells [10] = tested on: CEM cells
HIV [11] = assay: Anti-HIV activity of D-AC2 and PE analogs compared with 12MO (FIG. 7); type: cell-based
in vitro = assay: in vitro
Description: Stability of Anti-HIV Phlospholipids in Fresh Blood at 38° C.
Drug development using phospholipids will require that the parent compound is stable in blood. […] L-PE1 and L-PE2 are identical except that the methylene group in the 13 position of the sn-2 alkyl chain has been replaced with an oxygen atom.

[12] = Liposome formation in aqueous buffers; type: physicochemical
From the text: The increased activity of L-AC1 in MDM compared to CEM cells may be due to the phagocytosis of L-AC1 liposomes in MDM.

MT4 cells = assay: Drug cytotoxicity MTT assay (TC50), uninfected MT4 cells; type: cell-based
Description: as §1, §2

[13] = biological target: bee venom phospholipase A2 (PLA2) (Apis mellifera, UniProt P00630)
Chain of bee venom phospholipase A2 (PLA2) (P00630 34-167 limits assumed): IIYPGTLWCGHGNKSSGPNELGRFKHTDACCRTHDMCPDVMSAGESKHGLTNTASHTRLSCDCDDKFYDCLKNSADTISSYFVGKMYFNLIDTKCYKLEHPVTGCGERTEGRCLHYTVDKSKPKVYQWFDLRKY

PBMC = assay: Drug cytotoxicity MTT assay (TC50), PBMC; type: cell-based; conditions: PBMC cells, absence of HIV
Description: as §1, §4

COCCCCCCCCCCCC(=O)O [12MO, 12-methoxydodecanoic acid, reference compound]
T2 for incorporation into triglycerides and membrane lipids [1]: 1 to 2 min
inhibition of HIV p24 antigen production in MDM (HIV-1 (3B)): little activity
activity in MDM (HIV-1 (3B); 100 μM): ~100%
inhibition of HIV infection in macrophages (p24 antigen) (HIV-1 (3B); 100 μM): completely suppressed; also recorded: suppressed HIV replication
dose response behaviour in MDM (HIV-1 (3B)): very steep dose response effect
inhibition of HIV infection in macrophages (p24 antigen) (HIV-1 (3B); doses from 1 to 50 μM (below 100 μM)): little activity
CC50 at 5 days [2]: 140 µM
toxicity in macrophage experiment [3]: toxic
IC50 (HIV [4]; Human immunodeficiency virus 1, read-out: IC50 50% Reduction in syncytial cell formation MT4 cells, HIV infected MT4 cells, SupT1 target cells): ~4 µM
Therapeutic Index MT4 cells (TC50/IC50) (HIV [4]; MT4 cells, syncytial cell assay): 35
direct cytotoxicity to CEM cells (CEM cells [5]; 40 μM): showed toxicity
toxicity compared with the other analogs (CEM cells [5]; CEM cells, comparison in words): most toxic analog tested in this series
direct cytotoxicity to CEM cells (CEM cells [5]; dose up to 400 μM): toxic
IC50 ([6]; Human immunodeficiency virus 1, PBMC, 168 h): ~12 µM
IC50 ([6]; PBMC): 19 µM
CC50 at 5 days [7]: 340 µM
synergism when administered concurrently with AZT (reported) (HIV infected MT4 cells [8]): act synergistically
increase in activity (shift in dose response curve) when AZT was added (HIV infected MT4 cells [9]): < 10 fold

1-(12-methoxydodecanoyl)-sn-3-glycerophosphatidylcholine [lysoAC2]
IC50 (HIV-1; read-out: IC50, reduction of virus induced cytopathic effect (CPE), 7 days, FIG. 1): ~100 µM
toxicity compared with the other analogs (CEM cells [10]): significantly less toxic

CCCCCCCCCCCCCC(=O)OC[C@H](COP(=O)(O)OCCN)OC(=O)CCCCCCCCCCCOC [L-PE1, 1-Myristoyl-2-[12-methoxydodecanoyl]-sn-glycero-3-phosphoethanolamine]
IC50 (HIV [11]; Human immunodeficiency virus 1): 6 µM
half-life (in vitro): > 50 h

1-myristoyl-2-(12-methoxydodecan-oyl)-sn-3-phosphalidylcholine [AC1]
liposome formation [12]: formed liposomes
inhibition of HIV p24 antigen production in MDM (HIV-1 (3B)): completely suppressed
inhibition of HIV infection in macrophages (p24 antigen) (HIV-1 (3B); 100 μM): almost complete inhibition
dose response behaviour in MDM (HIV-1 (3B); listed as L-AC1): dose responsive activity
activity in direct cytopathic assay (HIV-1; 50 μM): little activity
anti-HIV activity with the active fatty acid anchored in the sn-2 position (HIV-1; FIG. 1, in words): significantly reduced the activity
toxicity compared with the other analogs (CEM cells [10]): significantly less toxic

1,2-(di-12-methoxydodecanoyl)-sn-3-phosphatidylcholine [L-AC2]
liposome formation [12]: formed liposomes
inhibition of HIV infection in macrophages (p24 antigen) (HIV-1 (3B); 1 μM, 15 day acute infection): completely suppressed
inhibition of HIV infection in macrophages (p24 antigen) (HIV-1 (3B); 1 μM, 15 day acute infection, listed as AC2): completely effective
dose response behaviour in MDM (HIV-1 (3B)): No dose response was observed
inhibition of HIV infection in macrophages (p24 antigen) (HIV-1 (3B); all doses tested (1-100 μM)): completely inhibited
potency in HIV infected MDM compared with 12MO (HIV-1 (3B); comparison in words): significantly more potent
CC50 (MT4 cells; MT4 cells, absence of HIV): 280 µM
TC50 in the presence of AZT (MT4 cells; uninfected MT4 cells, AZT 50 nM to 500 nM): unchanged
hydrolysis by PLA2 [13]: quantitatively hydrolyzed
IC50 (HIV [4]; read-out: IC50 50% Reduction in syncytial cell formation MT4 cells, HIV infected MT4 cells, SupT1 target cells): 1 µM
IC50 (HIV [4]; read-out: IC50 50% Reduction in syncytial cell formation MT4 cells, HIV infected MT4 cells, SupT1 target cells, listed as AC2): ~1 µM
IC50 ([6]; PBMC, listed as AC2): ~4 µM
IC50 ([6]; PBMC): 6 µM
CC50 (PBMC): 220 µM
IC50 (HIV [11]): ~1 µM
activity alone in syncytial cell assay (HIV infected MT4 cells [9]; 5 nM): inactive
inhibition of syncytia formation (HIV infected MT4 cells [9]; 5 nM L-AC2 plus 0.5 nM AZT, HIV infected MT4 cells): ~50%
activity alone in syncytial cell assay (HIV infected MT4 cells [9]; 10 nM): inactive
synergistic effects with AZT (HIV infected MT4 cells [9]; compared with 12MO and AZT, FIG. 6): increased synergistic effects
increase in activity (shift in dose response curve) when AZT was added (HIV infected MT4 cells [9]): approximately 100 fold
halflife in fresh blood (in vitro): 4.56 h

COCCCCCCCCCCCC(=O)OC[C@H](COP(=O)(O)OCCN)OC(=O)CCCCCCCCCCCOC [L-PE2, 1,2 di-(12-Methoxydodecanoyl)-sn-glycero-3-phosphoethanolamine]
anti-HIV activity relative to 12MO (HIV [11]): > 100 fold
IC50 (HIV [11]; Human immunodeficiency virus 1): 0.02 µM
half-life (in vitro): 9.36 h
